Laboratory results published in patent US6875761B2 (Eisai Co., Ltd., priority 1997, dated 2005).
Where a name gives a salt, the structure may show the parent alone.

Experiments:
serotonin 1A receptor = biological target: T1, serotonin 1A receptor (Rattus norvegicus, UniProt P19327); test: Binding test on [3H] 8-hydroxy-dipropylaminotetralin, hippocampus receptor fraction; parameters: species or system SD rats; conditions: rat hippocampus receptor fraction, 0.5 nM [3H] 8-OH-DPAT, room temperature 30 min; read-out: 5HT1
T1 construct: To the receptor fraction of the hippocampus were added a test compound and 0.5 nM of [^3H]; 8-hydroxy-dipropylaminotetralin; from tissue; host or cells: rat hippocampus membrane fraction
T1 sequence (P19327 1-422): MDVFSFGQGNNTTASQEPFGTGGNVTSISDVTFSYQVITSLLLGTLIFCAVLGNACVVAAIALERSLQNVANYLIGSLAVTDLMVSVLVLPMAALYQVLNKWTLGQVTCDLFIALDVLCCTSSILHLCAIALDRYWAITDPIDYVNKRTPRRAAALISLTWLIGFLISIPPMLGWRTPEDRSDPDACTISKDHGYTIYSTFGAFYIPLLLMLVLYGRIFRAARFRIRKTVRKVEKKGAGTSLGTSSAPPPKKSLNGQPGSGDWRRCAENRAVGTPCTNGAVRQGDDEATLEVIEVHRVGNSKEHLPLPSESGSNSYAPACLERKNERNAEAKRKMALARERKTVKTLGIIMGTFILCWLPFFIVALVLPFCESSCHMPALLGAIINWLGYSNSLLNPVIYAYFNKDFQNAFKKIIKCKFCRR

serotonin 2 receptor = biological target: T2, serotonin 2 receptor (Rattus norvegicus, UniProt P14842); test: Binding test on [3H] ketanserin, cerebral cortex receptor fraction; parameters: species or system SD rats; conditions: 0.3 nM [3H] ketanserin, 37° C. 15 min, read-out: 5HT2
T2 construct: To the receptor fraction of the cerebral cortex were added a test compound and 0.3 nM of [^3H] ketanserin; from tissue; host or cells: rat cerebral cortex membrane fraction
T2 sequence (P14842 whole entry): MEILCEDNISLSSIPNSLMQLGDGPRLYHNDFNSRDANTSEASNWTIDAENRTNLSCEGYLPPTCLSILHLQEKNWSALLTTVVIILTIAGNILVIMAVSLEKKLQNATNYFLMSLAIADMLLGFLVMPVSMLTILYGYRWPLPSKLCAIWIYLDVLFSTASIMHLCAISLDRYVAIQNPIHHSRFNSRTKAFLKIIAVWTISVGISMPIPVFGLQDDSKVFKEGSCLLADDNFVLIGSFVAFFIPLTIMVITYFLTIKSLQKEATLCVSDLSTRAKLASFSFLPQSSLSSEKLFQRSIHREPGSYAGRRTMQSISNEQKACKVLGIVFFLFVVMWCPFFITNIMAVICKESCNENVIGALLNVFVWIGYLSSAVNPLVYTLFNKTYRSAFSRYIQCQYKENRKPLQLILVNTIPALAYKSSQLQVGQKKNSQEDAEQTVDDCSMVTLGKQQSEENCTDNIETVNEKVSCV

| SMILES | Ki (serotonin 1A receptor) [nM] | Ki (serotonin 2 receptor) [nM] |
| --- | --- | --- |
| CCN1CCN(c2nc(-c3ccc(OC)cc3)cc3cccc(F)c23)CC1 [Example 233, 1-(1-ethylpiperazin-4-yl)-8-fluoro-3-(4-methoxyphenyl)isoquinoline dihydrochloride] | 200 | 1.97 |
| CCN1CCN(c2nc(-c3ccc(OCCO)cc3)cc3cccc(F)c23)CC1 [Example 234, 1-(1-ethylpiperazin-4-yl)-8-fluoro-3-[4-(2-hydroxyethoxy)phenyl]isoquinoline dihydrochloride] | 129 | 1.11 |
| CCS(=O)(=O)NCc1ccc(-c2cc3ccccc3c(N3CCN(CCO)CC3)n2)cc1 [Example 243, 3-(4-ethylsulfonylaminomethylphenyl)-1-[4-(2-hydroxyethyl)piperazin-1-yl]isoquinoline Hydrochloride] | 13 | 6.7 |
| CCN1CCN(c2nc(-c3ccc(OC)cc3)cc3cccnc23)CC1 [Example 244, 8-(4-ethylpiperazin-1-yl)-6-(4-methoxyphenyl)pyrido[2,3-c]pyridine Hydrochloride] | 27.1 | 78.6 |
| CCN1CCN(c2nc(-c3ccc(OCCO)cc3)cc3cccnc23)CC1 [Example 245, 8-(1-ethylpiperazin-4-yl)-6-[4-(2-hydroxyethoxy)phenyl]-1,7-naphthyridine Dihydrochloride] | 109 | 72.2 |
| CCN1CCN(c2nc(-c3ccc(CCCO)cc3)cc3cccnc23)CC1 [Example 247, 8-(1-ethylpiperazin-4-yl)-6-[4-(3-hydroxypropyl)phenyl]-1,7-naphthyridine Dihydrochloride] | 25.1 | 28.7 |
| CCN1CCN(c2nc(-c3ccc(CCC(C)O)cc3)cc3cccnc23)CC1 (stereo not shown) [Example 248, 8-(1-ethylpiperazin-4-yl)-6-[4-(3-hydroxybutyl)phenyl]-1,7-naphthyridine Dihydrochloride] | 43 | 31.6 |

Further lines, results first:

| Ki (serotonin 1A receptor) [nM] | Ki (serotonin 2 receptor) [nM] | SMILES |
| --- | --- | --- |
| 38 | 28.1 | CCN1CCN(c2nc(-c3ccc(C(F)CCO)cc3)cc3cccnc23)CC1 (stereo not shown) [Example 249, 8-(1-ethylpiperazin-4-yl)-6-[4-(3-hydroxy-1-fluoropropyl)phenyl]-1,7-naphthyridine Dihydrochloride] |
| 123 | 7.67 | CCN1CCN(c2nc(-c3ccc(OCC(C)(C)O)cc3)cc3cccnc23)CC1 [Example 250, 8-(1-ethylpiperazin-4-yl)-6-[4-(2-hydroxy-2-methylpropoxy)phenyl]-1,7-naphthyridine Dihydrochloride] |
| 75.4 | 5.98 | CN1CCN(c2nc(-c3ccc(OCCO)cc3)cc3ccsc23)CC1 [Example 253, 5-[4-(2-hydroxyethoxy)phenyl]-7-(4-methylpiperazin-1-yl)thieno[2,3-c]pyridine Hydrochloride] |
| 59.7 | 29.2 | CCCCC(O)c1ccc(-c2cc3ccsc3c(N3CCN(CC)CC3)n2)cc1 (stereo not shown) [Example 254, 7-(1-ethylpiperazin-4-yl)-5-[4-(1-hydroxypentyl)phenyl]thieno[2,3-c]pyridine Dihydrochloride] |
| 75.4 | 40 | CCN1CCN(c2nc(-c3ccc(C(O)CC(C)C)cc3)cc3ccsc23)CC1 (stereo not shown) [Example 255, 7-(1-ethylpiperazin-4-yl)-5-[4-(1-hydroxy-3-methylbutyl)phenyl]thieno[2,3-c]pyridine Dihydrochloride] |
| 9.22 | 19.5 | CCN1CCN(c2nc(-c3ccc(C(F)CCO)cc3)cc3ccsc23)CC1 (stereo not shown) [Example 256, 7-(1-ethylpiperazin-4-yl)-5-[4-(3-hydroxy-1-fluoropropyl)phenyl]thieno[2,3-c]pyridine Dihydrochloride] |
| 12.6 | 23.2 | CCN1CCN(c2nc(-c3ccc(CCCO)c(Cl)c3)cc3ccsc23)CC1 [Example 257, 5-[4-(3-hydroxypropyl)-3-chlorophenyl]-7-(4-ethylpiperazin-1-yl)thieno[2,3-c]pyridine Oxalate] |
